According to PubChem BioAssay (NCI):
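Grown in 96-well plates, cells were treated for 48 hours with each compound at five concentrations. Insufficient inhibition: endpoint recorded as highest concentration tested. At the GI50, growth is halved. TGI marks complete inhibition of growth.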

Key:
Experiment in all cases: growth of human tumour cells (NCI), 48 h
[1] = test system: 786-0 renal
[2] = test system: A498 renal
[3] = test system: A549 NSCLC
[4] = test system: ACHN renal
[5] = test system: BT-549 breast
[6] = test system: CAKI-1 renal
[7] = test system: CCRF-CEM leukemia
[8] = test system: COLO 205 colon
[9] = test system: DU-145 prostate
[10] = test system: EKVX NSCLC
[11] = test system: HCC-2998 colon
[12] = test system: HCT-15 colon
[13] = test system: HL-60(TB) leukemia
[14] = test system: HOP-62 NSCLC
[15] = test system: HOP-92 NSCLC
[16] = test system: HS 578T breast
[17] = test system: HT29 colon
[18] = test system: IGROV1 ovarian
[19] = test system: K-562 leukemia
[20] = test system: KM12 colon
[21] = test system: LOX IMVI melanoma
[22] = test system: M14 melanoma
[23] = test system: MALME-3M melanoma
[24] = test system: MCF7 breast
[25] = test system: MDA-MB-231 breast
[26] = test system: MDA-MB-435
[27] = test system: MDA-MB-468 breast
[28] = test system: MOLT-4 leukemia
[29] = test system: NCI-H226 lung
[30] = test system: NCI-H23 lung
[31] = test system: NCI-H460 lung
[32] = test system: NCI-H522 lung
[33] = test system: OVCAR-3 ovarian
[34] = test system: OVCAR-4 ovarian
[35] = test system: OVCAR-5 ovarian
[36] = test system: OVCAR-8 ovarian
[37] = test system: PC-3 prostate
[38] = test system: RPMI-8226 leukemia
[39] = test system: RXF 393 renal
[40] = test system: SF-268 CNS
[41] = test system: SF-295 CNS
[42] = test system: SF-539 CNS
[43] = test system: SK-MEL-2 melanoma
[44] = test system: SK-MEL-28 melanoma
[45] = test system: SK-MEL-5 melanoma
[46] = test system: SK-OV-3 ovarian
[47] = test system: SN12C renal
[48] = test system: SNB-19 CNS
[49] = test system: SNB-75 CNS
[50] = test system: SR leukemia
[51] = test system: SW-620 colon
[52] = test system: T-47D breast
[53] = test system: TK-10 renal
[54] = test system: U251 CNS
[55] = test system: UACC-257 melanoma
[56] = test system: UACC-62 melanoma
[57] = test system: HCT-116 colon
[58] = test system: NCI/ADR-RES ovarian

`CN1C(=O)/C(=C/c2ccc3ncsc3c2)NC1=NC12CC3CC(CC(O)(C3)C1)C2` gave a GI50 [1] of 4.02 µM, a TGI [1] of over 100 µM and a GI50 [2] of 1.6 µM. It also gave a TGI [2] of 6.68 µM, a GI50 [3] of 1.98 µM and a TGI [3] of over 100 µM. The GI50 [4] was 0.892 µM, the TGI [4] was over 100 µM and the GI50 [5] was 1.17 µM. For the same compound, the TGI [5] was 10.3 µM, the GI50 [6] was 1.64 µM and the TGI [6] was over 100 µM. The GI50 [7] was 1.92 µM, the TGI [7] was 8.18 µM and the GI50 [8] was 3.18 µM. The TGI [8] was 30.5 µM, the GI50 [9] was 2.97 µM and the TGI [9] was over 100 µM. The GI50 [10] was 4.25 µM, the TGI [10] was over 100 µM and the GI50 [11] was 7.66 µM. For the same compound, the TGI [11] was over 100 µM, the GI50 [12] was 2.13 µM and the TGI [12] was over 100 µM. The GI50 [13] was 3.2 µM, the TGI [13] was 8.15 µM and the GI50 [14] was 4.13 µM. The TGI [14] was over 100 µM, the GI50 [15] was 5.31 µM and the TGI [15] was 56.9 µM. It also gave a GI50 [16] of 2.16 µM, a TGI [16] of 8.97 µM and a GI50 [17] of 3.85 µM. It also gave a TGI [17] of 17.8 µM, a GI50 [18] of 2.82 µM and a TGI [18] of over 100 µM. The GI50 [19] was 1.7 µM, the TGI [19] was over 100 µM and the GI50 [20] was 2.81 µM. The TGI [20] was over 100 µM, the GI50 [21] was 2.52 µM and the TGI [21] was over 100 µM. The GI50 [22] was 4.28 µM, the TGI [22] was 34.4 µM and the GI50 [23] was 2.98 µM. The TGI [23] was 8.25 µM, the GI50 [24] was 2.98 µM and the TGI [24] was over 100 µM. It also gave a GI50 [25] of 4.26 µM, a TGI [25] of 85.4 µM and a GI50 [26] of 3.69 µM. The TGI [26] was 20 µM, the GI50 [27] was 1.48 µM and the TGI [27] was 15.9 µM. It also gave a GI50 [28] of 2.22 µM, a TGI [28] of 22.3 µM and a GI50 [29] of 2.7 µM. For the same compound, the TGI [29] was over 100 µM, the GI50 [30] was 2.48 µM and the TGI [30] was 13.9 µM. The GI50 [31] was 2.22 µM, the TGI [31] was over 100 µM and the GI50 [32] was 0.768 µM. The TGI [32] was 4.49 µM, the GI50 [33] was 1.4 µM and the TGI [33] was 6.18 µM. The GI50 [34] was 9.29 µM, the TGI [34] was over 100 µM and the GI50 [35] was 5.12 µM. The TGI [35] was over 100 µM, the GI50 [36] was 3.01 µM and the TGI [36] was over 100 µM. The GI50 [37] was 3.73 µM, the TGI [37] was over 100 µM and the GI50 [38] was 1.98 µM. The TGI [38] was 6.83 µM, the GI50 [39] was 1.85 µM and the TGI [39] was 12.2 µM. It also gave a GI50 [40] of 4.47 µM, a TGI [40] of 34.5 µM and a GI50 [41] of 5.28 µM. For the same compound, the TGI [41] was over 100 µM, the GI50 [42] was 1.29 µM and the TGI [42] was 5.82 µM. The GI50 [43] was 1.98 µM, the TGI [43] was 9.48 µM and the GI50 [44] was 2.57 µM. For the same compound, the TGI [44] was 8.69 µM, the GI50 [45] was 2.02 µM and the TGI [45] was 5.07 µM. For the same compound, the GI50 [46] was 2.21 µM, the TGI [46] was over 100 µM and the GI50 [47] was 2.07 µM. The TGI [47] was 49.6 µM, the GI50 [48] was 3.47 µM and the TGI [48] was over 100 µM. It also gave a GI50 [49] of 1.02 µM, a TGI [49] of 7.89 µM and a GI50 [50] of 0.534 µM. For the same compound, the TGI [50] was 5.37 µM, the GI50 [51] was 2.74 µM and the TGI [51] was 17.3 µM. The GI50 [52] was 3.32 µM, the TGI [52] was over 100 µM and the GI50 [53] was 4.44 µM. The TGI [53] was over 100 µM, the GI50 [54] was 3.14 µM and the TGI [54] was over 100 µM. It also gave a GI50 [55] of 3.59 µM, a TGI [55] of 12.5 µM and a GI50 [56] of 2.22 µM. It also gave a TGI [56] of 9.09 µM.

`Cc1ccc(Cl)cc1NC(=O)Nc1nc2ccc([N+](=O)[O-])cc2s1` showed a GI50 [1] of 2.73 µM, a TGI [1] of 10 µM and a GI50 [2] of 2.38 µM. It also gave a TGI [2] of 6.29 µM, a GI50 [3] of 2.94 µM and a TGI [3] of 10.1 µM. For the same compound, the GI50 [4] was 3.09 µM, the TGI [4] was 10.6 µM and the GI50 [5] was 2.35 µM. The TGI [5] was 7.92 µM, the GI50 [6] was 3.18 µM and the TGI [6] was 11.7 µM. It also gave a GI50 [7] of 3.02 µM, a TGI [7] of 12.5 µM and a GI50 [8] of 1.85 µM. The TGI [8] was 3.58 µM, the GI50 [9] was 3.68 µM and the TGI [9] was 14.1 µM. For the same compound, the GI50 [10] was 2.79 µM, the TGI [10] was 10.1 µM and the GI50 [11] was 3.43 µM. For the same compound, the TGI [11] was 10.9 µM, the GI50 [57] was 2.81 µM and the TGI [57] was 11 µM. The GI50 [12] was 2.93 µM, the TGI [12] was 11.3 µM and the GI50 [13] was 1.88 µM. For the same compound, the TGI [13] was 4.7 µM, the GI50 [14] was 3.47 µM and the TGI [14] was 11.2 µM. It also gave a GI50 [15] of 2.29 µM, a TGI [15] of 6.42 µM and a GI50 [16] of 2.75 µM. It also gave a TGI [16] of 9.4 µM, a GI50 [17] of 3.28 µM and a TGI [17] of 10.5 µM. It also gave a GI50 [18] of 3.92 µM, a TGI [18] of 14.3 µM and a GI50 [19] of 2.5 µM. For the same compound, the TGI [19] was 10.2 µM, the GI50 [20] was 3.1 µM and the TGI [20] was 10.3 µM. It also gave a GI50 [21] of 3.28 µM, a TGI [21] of 12.1 µM and a GI50 [22] of 2.87 µM. For the same compound, the TGI [22] was 10.8 µM, the GI50 [23] was 2.17 µM and the TGI [23] was 6.39 µM. The GI50 [24] was 2.71 µM, the TGI [24] was 8.92 µM and the GI50 [26] was 3.33 µM. The TGI [26] was 12.2 µM, the GI50 [27] was 2.24 µM and the TGI [27] was 6.6 µM. It also gave a GI50 [28] of 2.3 µM, a TGI [28] of 6.76 µM and a GI50 [29] of 3.34 µM. For the same compound, the TGI [29] was 12 µM, the GI50 [30] was 2.27 µM and the TGI [30] was 6.58 µM. For the same compound, the GI50 [31] was 2.69 µM, the TGI [31] was 10.2 µM and the GI50 [32] was 2.08 µM. For the same compound, the TGI [32] was 7.17 µM, the GI50 [58] was 2.54 µM and the TGI [58] was 9.04 µM. For the same compound, the GI50 [33] was 3.25 µM, the TGI [33] was 11.6 µM and the GI50 [34] was 3.36 µM. For the same compound, the TGI [34] was 14.2 µM, the GI50 [35] was 3.33 µM and the TGI [35] was 11.9 µM. For the same compound, the GI50 [36] was 3.07 µM, the TGI [36] was 11.7 µM and the GI50 [37] was 2.97 µM. The TGI [37] was 11.3 µM, the GI50 [38] was 1.85 µM and the TGI [38] was 5.58 µM. For the same compound, the GI50 [39] was 2.54 µM, the TGI [39] was 9.73 µM and the GI50 [40] was 3.48 µM. For the same compound, the TGI [40] was 13.8 µM, the GI50 [41] was 2.24 µM and the TGI [41] was 6.59 µM. For the same compound, the GI50 [42] was 2.6 µM, the TGI [42] was 6.9 µM and the GI50 [44] was 3.42 µM. For the same compound, the TGI [44] was 12.3 µM, the GI50 [45] was 1.84 µM and the TGI [45] was 3.6 µM. It also gave a GI50 [46] of 2.19 µM, a TGI [46] of 6.52 µM and a GI50 [47] of 2.86 µM. It also gave a TGI [47] of 9.7 µM, a GI50 [48] of 3.43 µM and a TGI [48] of 12.7 µM. For the same compound, the GI50 [50] was 2.05 µM, the TGI [50] was 5.63 µM and the GI50 [51] was 3.06 µM. It also gave a TGI [51] of 12.4 µM, a GI50 [52] of 2.31 µM and a TGI [52] of 7.87 µM. The GI50 [53] was 3.49 µM, the TGI [53] was 13 µM and the GI50 [54] was 3.06 µM. The TGI [54] was 10.7 µM, the GI50 [55] was 2.21 µM and the TGI [55] was 6.63 µM. It also gave a GI50 [56] of 2.86 µM and a TGI [56] of 11.5 µM.
